{"source": "paper PMC9503459", "about": "“Antifungal Activity, Structural Stability, and Immunomodulatory Effects on Human Immune Cells of Defensin from the Lentil Lens culinaris” (Membranes, 2022)", "key": {"[1]": {"test_system": "human red blood cells (hRBC)", "assay": "Hemolytic assay", "assay_type": "cell-based", "settings": "100 μM, 4% hRBC in PBS pH 7.2, 1.5 h, 37 °C, A405", "procedure": "Hemolytic activity of Lc-def was studied using 96-well microplates. Fresh human red blood cells (hRBC) were washed three times with ice-cold PBS, pH 7.2. Serial two-fold dilutions of Lc-def and membrane-active peptide melittin from the venom of honeybees as positive control (final concentrations from 0.1 to 100 μM) were then added to hRBC in PBS (final concentration of 4% (v/v)). The suspension was incubated for 1.5 h at 37 °C. After, intact hRBC sedimentation aliquots of the supernatants containing released hemoglobin were transferred to 96-well microplates, and the absorbance at 405 nm was measured. hRBC in PBS or 0.1% Triton X-100 were employed as negative (control0) and positive (control100) controls, respectively. The percentage of hemolysis was calculated as: hemolysis(%) = ((Asample − Acontrol0)/(Acontrol100 − Acontrol0)) × 100%. Experiment was carried out twice in triplicate using the same blood."}, "[2]": {"test_system": "monocyte-derived mature dendritic cells (moDCs)", "assay": "Cytokine response by multiplex xMAP, moDCs", "assay_type": "cell-based, human", "settings": "2 µM, 24 h", "procedure": "Colorectal adenocarcinoma Caco-2 cell line (ATCC HTB-37) was cultured in complete DMEM/F12 (1:1) medium containing 10% fetal bovine serum (FBS, Gibco) and 1X antibiotic-antimycotic solution (1XAAS, Invitrogen, Waltham, MA, USA). The acute monocytic leukemia THP-1 line (ATCC TIB-202) was cultured in complete RPMI-1640 medium, containing 10% FBS, 1XAAS, and […]. THP-1 cells were differentiated into pro-inflammatory macrophages (Mφ1) with phorbol 12-myristate 13-acetate (Sigma-Aldrich) for 24 h and subsequently polarized with lipopolysaccharide from E. coli (Sigma-Aldrich) and rhIFN-γ (Sigma-Aldrich) for another 48 h according to previously reported protocol. All cells were cultured in a humidified CO2 incubator (5% CO2, 37 °C). Primary peripheral blood mononuclear cells (PBMCs) collected from a healthy donor were purchased from American Type Culture Collection (ATCC PCS-800-011). CD4^+ T-helper and CD8^+ T cytotoxic cells were isolated from PBMCs by magnetic separation with mouse anti-human CD4-PE (clone 13B8.2, Beckman Coulter Diagnostics, Pasadena, CA, USA) and CD8-PE (clone REA734, Miltenyi Biotec, Bergisch Gladbach, Germany), Anti-PE MicroBeads (Miltenyi Biotec), and LS Separation Columns (Miltenyi Biotec). Isolated CD4^+ and CD8^+ cells were expanded separately with Dynabeads™ Human T-Expander CD3/CD28 (Gibco, Waltham, MA, USA) in RPMI-1640 supplemented with 10% FBS, 1XAAS and 100 U/mL rh-IL-2 (Gibco). Regulatory CD4^+ FoxP3^+ T cells (Tregs) were isolated from PBMCs by magnetic separation with CD4^+CD25^+ Regulatory T Cell Isolation Kit, human (Miltenyi Biotec). Primary CD14^+ blood monocytes were isolated from PBMCs by adherence according to standard technique. Monocyte-derived mature dendritic cells (moDCs) were obtained from CD14^+ blood monocytes according to the previously reported protocol. Briefly, blood monocytes were incubated in complete RPMI-1640 medium, containing 10% FBS, 1XAAS, 800 U/mL rhGM-CSF (Sci-Store, Russia, Moscow) and 500 U/mL rhIL-4 (Sci-Store) for 3 days. Fresh complete RPMI-1640 medium with rhGM-CSF and rhIL-4 was added to the culture on day 3. On day 5, fresh complete RPMI-1640 containing 100 U/mL rhTNF-α (Sigma) as well as 800 U/mL rhGM-CSF and 500 U/mL rhIL-4 was added and the culture was incubated for another 4 days until full maturation.\nCaco-2 cells were seeded into the wells of a 48-well plate, coated with 0.1% bovine collagen (Sigma-Aldrich) for 24 h, 3 weeks before the experiment with complete DMEM/F12 (1:1) medium renewal every 2–3 days. Monocytes, moDCs, CD4^+ T-helper and CD8^+ T cytotoxic cells, Mφ1, and Regulatory CD4^+ FoxP3^+ T cells were seeded into the wells of 48-well plates in the complete RPMI-1640 medium supplemented with 10% Human AB serum (HABS, Capricorn Scientific, Ebsdorfergrund, Germany) and 1XAAS 24 h prior to the experiment; medium in Caco-2-containing wells was also replaced with the same medium. After 24 h, half of the medium in each well was replaced by fresh complete RPMI-1640 medium with 10% HABS, supplemented with 4 µM of Lc-def for the sample wells or fresh medium alone for the control wells. Cell cultures were kept in CO2-incubator (5% CO2, 37 °C) for another 24 h. Culture supernatants were collected 24 h later and stored at −70 °C degrees less than one month prior to the analytes assessment. […]"}, "[3]": {"test_system": "Gram-positive or Gram-negative bacteria", "settings": "cited from earlier work"}}, "note": "No end group written: not given here."}
{"substance": "Lc-def: defensin from lentil Lens culinaris seeds (UniProt:B3F051), recombinant, overexpressed in Escherichia coli (KTCENLSDSFKGPCIPDGNCNKHCKEKEHLLSGRCRDDFRCWCTRNC; disulfide (positions not given here); ends not checked; also: disulfide bonds present, pairing not given here; UniProt B3F051 28-74, looked up)", "values": [{"measurement": "hemolysis of erythrocytes", "setting": "[1]", "result": "did not cause hemolysis"}, {"measurement": "EGF", "setting": "[2]", "result": 2.16, "unit": "pg/mL"}, {"measurement": "Eotaxin", "setting": "[2]", "result": "<3.23↓ pg/ml"}, {"measurement": "FGF-2", "setting": "[2]", "result": 34.19, "unit": "pg/mL"}, {"measurement": "FLT-3L", "setting": "[2]", "result": 0.84, "unit": "pg/mL"}, {"measurement": "Fractalkine", "setting": "[2]", "result": "<23.19↓ pg/ml"}, {"measurement": "G-CSF", "setting": "[2]", "result": 4.71, "unit": "pg/mL"}, {"measurement": "GM-CSF", "setting": "[2]", "result": 10.34, "unit": "pg/mL"}, {"measurement": "GROa", "setting": "[2]", "result": "<0.67↓ pg/ml"}, {"measurement": "IFNa2", "setting": "[2]", "result": 7.77, "unit": "pg/mL"}, {"measurement": "IFNg", "setting": "[2]", "result": 3.79, "unit": "pg/mL"}, {"measurement": "IL-1RA", "setting": "[2]", "result": 37.33, "unit": "pg/mL"}, {"measurement": "IL-1a", "setting": "[2]", "result": 20.45, "unit": "pg/mL"}, {"measurement": "IL-1b", "setting": "[2]", "result": "<18.72↓ pg/ml"}, {"measurement": "IL-2", "setting": "[2]", "result": 0.98, "unit": "pg/mL"}, {"measurement": "IL-3", "setting": "[2]", "result": "<0.48↓ pg/ml"}, {"measurement": "IL-4", "setting": "[2]", "result": "<0.31↓ pg/ml"}, {"measurement": "IL-5", "setting": "[2]", "result": 2.41, "unit": "pg/mL"}, {"measurement": "IL-6", "setting": "[2]", "result": 1.12, "unit": "pg/mL"}, {"measurement": "IL-7", "setting": "[2]", "result": "<0.33↓ pg/ml"}, {"measurement": "IL-8", "setting": "[2]", "result": 162.8, "unit": "pg/mL"}, {"measurement": "IL-9", "setting": "[2]", "result": 4.1, "unit": "pg/mL"}, {"measurement": "IL-10", "setting": "[2]", "result": 14.42, "unit": "pg/mL"}, {"measurement": "IL-12 (p40)", "setting": "[2]", "result": 19.56, "unit": "pg/mL"}, {"measurement": "IL-12 (p70)", "setting": "[2]", "result": "<1.48↓ pg/ml"}, {"measurement": "IL-13", "setting": "[2]", "result": 11.42, "unit": "pg/mL"}, {"measurement": "IL-15", "setting": "[2]", "result": 15.16, "unit": "pg/mL"}, {"measurement": "IL-17A", "setting": "[2]", "result": "<1.55↓ pg/ml"}, {"measurement": "IL-17E/IL-25", "setting": "[2]", "result": "<20.59↓ pg/ml"}, {"measurement": "IL-17F", "setting": "[2]", "result": "<16.96↓ pg/ml"}, {"measurement": "IL-18", "setting": "[2]", "result": 2.04, "unit": "pg/mL"}, {"measurement": "IL-22", "setting": "[2]", "result": 9.4, "unit": "pg/mL"}, {"measurement": "IL-27", "setting": "[2]", "result": 51.46, "unit": "pg/mL"}, {"measurement": "IP-10", "setting": "[2]", "result": 1871, "unit": "pg/mL"}, {"measurement": "M-GSF", "setting": "[2]", "result": 78, "unit": "pg/mL"}, {"measurement": "MCP-1", "setting": "[2]", "result": 782.17, "unit": "pg/mL"}, {"measurement": "MCP-3", "setting": "[2]", "result": 29.76, "unit": "pg/mL"}, {"measurement": "MDC", "setting": "[2]", "result": 1903, "unit": "pg/mL"}, {"measurement": "MIG", "setting": "[2]", "result": 33510, "unit": "pg/mL"}, {"measurement": "MIP-1a", "setting": "[2]", "result": 119.77, "unit": "pg/mL"}, {"measurement": "MIP-1b", "setting": "[2]", "result": 243.76, "unit": "pg/mL"}, {"measurement": "PDGF-AA", "setting": "[2]", "result": 51.36, "unit": "pg/mL"}, {"measurement": "PDGF-AB/BB", "setting": "[2]", "result": 107.03, "unit": "pg/mL"}, {"measurement": "RANTES", "setting": "[2]", "result": 15.66, "unit": "pg/mL"}, {"measurement": "TGF-a", "setting": "[2]", "result": 75.94, "unit": "pg/mL"}, {"measurement": "TNFa", "setting": "[2]", "result": 21.61, "unit": "pg/mL"}, {"measurement": "TNFb", "setting": "[2]", "result": "<0.73↓ pg/ml"}, {"measurement": "VEGFa", "setting": "[2]", "result": "<1.27↓ pg/ml"}, {"measurement": "changes in cytokine profiles", "setting": "[2]", "result": "did not induce significant changes"}, {"measurement": "sCD40L", "setting": "[2]", "result": 84.33, "unit": "pg/mL"}, {"measurement": "effect on growth of bacteria", "setting": "[3]", "result": "did not affect the growth"}]}
